Test results as given in PubChem BioAssay AID2060892 (Molecular Pharmacology Branch, DTP, NCI, 2025).

Test system: HOP-62 complex spheroids with HUVEC/MSC, viability
Experiment: Anticancer human tumor HOP-62 cell line growth inhibition [RAS];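 also: spheroids exposed to agents for seven days before readout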;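 as to viability, T/C: 100% = DMSO vehicle control viability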
Conditions: for IC50: curve of first compound; for viability, T/C: stronger effect = lower value
Summary of the method: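 Multi-cell-type spheroids: tumor cells plus HUVEC endothelial cells and mesenchymal stem cells. RAS-pathway inhibitors were combined with targeted agents, each dosed in half-log steps down from clinical Cmax, or from 10 microM when Cmax was unknown.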

Compound C=CC(=O)N1CCN(c2nc(OCC3CCCN3C)nc3c(F)c(-c4nc(N)cc(C)c4C(F)(F)F)c(Cl)cc23)C(C)C1 (centres undefined) + CCn1c(-c2cc(N3CCN(C)CC3)cnc2C(C)OC)c2c3cc(ccc31)-c1csc(n1)CC(NC(=O)C1CC1C)C(=O)N1CCCC(N1)C(=O)OCC(C)(C)C2 has an IC50 (second compound 0.000949 µM) of over 1000 nM, an IC50 (second compound 0.003 µM) of over 1000 nM and an IC50 (second compound 0.00949 µM) of over 1000 nM. It also gave an IC50 (second compound 0.03 µM) of under 3.16 nM, an IC50 (second compound 0.0949 µM) of under 3.16 nM and an IC50 (second compound 0.3 µM) of under 3.16 nM. It also gave a viability, T/C (second compound 0.000949 µM, first compound 0.00316 µM) of 92.6%, a viability, T/C (second compound 0.000949 µM, first compound 0.01 µM) of 85.2% and a viability, T/C (second compound 0.000949 µM, first compound 0.0316 µM) of 66.2%. For the same compound, the viability, T/C (second compound 0.000949 µM, first compound 0.1 µM) was 88.2%, the viability, T/C (second compound 0.000949 µM, first compound 0.316 µM) was 84% and the viability, T/C (second compound 0.000949 µM, first compound 1 µM) was 66.1%. The viability, T/C (second compound 0.003 µM, first compound 0.00316 µM) was 75.6%, the viability, T/C (second compound 0.003 µM, first compound 0.01 µM) was 75.9% and the viability, T/C (second compound 0.003 µM, first compound 0.0316 µM) was 69.2%. The viability, T/C (second compound 0.003 µM, first compound 0.1 µM) was 74.2%, the viability, T/C (second compound 0.003 µM, first compound 0.316 µM) was 78.5% and the viability, T/C (second compound 0.003 µM, first compound 1 µM) was 54.5%. For the same compound, the viability, T/C (second compound 0.00949 µM, first compound 0.00316 µM) was 70.7%, the viability, T/C (second compound 0.00949 µM, first compound 0.01 µM) was 52.2% and the viability, T/C (second compound 0.00949 µM, first compound 0.0316 µM) was 52.9%. The viability, T/C (second compound 0.00949 µM, first compound 0.1 µM) was 59.8%, the viability, T/C (second compound 0.00949 µM, first compound 0.316 µM) was 49.7% and the viability, T/C (second compound 0.00949 µM, first compound 1 µM) was 46.1%. It also gave a viability, T/C (second compound 0.03 µM, first compound 0.00316 µM) of 46.8%, a viability, T/C (second compound 0.03 µM, first compound 0.01 µM) of 43.2% and a viability, T/C (second compound 0.03 µM, first compound 0.0316 µM) of 43.5%. The viability, T/C (second compound 0.03 µM, first compound 0.1 µM) was 32.2%, the viability, T/C (second compound 0.03 µM, first compound 0.316 µM) was 31.3% and the viability, T/C (second compound 0.03 µM, first compound 1 µM) was 38.5%. For the same compound, the viability, T/C (second compound 0.0949 µM, first compound 0.00316 µM) was 35.6%, the viability, T/C (second compound 0.0949 µM, first compound 0.01 µM) was 37.1% and the viability, T/C (second compound 0.0949 µM, first compound 0.0316 µM) was 34%. The viability, T/C (second compound 0.0949 µM, first compound 0.1 µM) was 36.7%, the viability, T/C (second compound 0.0949 µM, first compound 0.316 µM) was 29.2% and the viability, T/C (second compound 0.0949 µM, first compound 1 µM) was 27.2%. It also gave a viability, T/C (second compound 0.3 µM, first compound 0.00316 µM) of 39.4%, a viability, T/C (second compound 0.3 µM, first compound 0.01 µM) of 52.7% and a viability, T/C (second compound 0.3 µM, first compound 0.0316 µM) of 37.7%. The viability, T/C (second compound 0.3 µM, first compound 0.1 µM) was 28.8%, the viability, T/C (second compound 0.3 µM, first compound 0.316 µM) was 31.7% and the viability, T/C (second compound 0.3 µM, first compound 1 µM) was 31.6%.

In the case of CC1(C)CCC(Nc2ncc(C(F)(F)F)c(-c3c[nH]c4c(P(C)(C)=O)c(C#N)ccc34)n2)CN1 (centres undefined) + CCn1c(-c2cc(N3CCN(C)CC3)cnc2C(C)OC)c2c3cc(ccc31)-c1csc(n1)CC(NC(=O)C1CC1C)C(=O)N1CCCC(N1)C(=O)OCC(C)(C)C2, the IC50 (second compound 0.000949 µM) is reported as over 300 nM, the IC50 (second compound 0.003 µM) is reported as 274 nM and the IC50 (second compound 0.00949 µM) is reported as over 300 nM. For the same compound, the IC50 (second compound 0.03 µM) was over 300 nM, the IC50 (second compound 0.0949 µM) was over 300 nM and the IC50 (second compound 0.3 µM) was under 0.949 nM. The viability, T/C (second compound 0.000949 µM, first compound 0.000949 µM) was 106%, the viability, T/C (second compound 0.000949 µM, first compound 0.003 µM) was 95.9% and the viability, T/C (second compound 0.000949 µM, first compound 0.00949 µM) was 54.9%. For the same compound, the viability, T/C (second compound 0.000949 µM, first compound 0.03 µM) was 71.5%, the viability, T/C (second compound 0.000949 µM, first compound 0.0949 µM) was 76.7% and the viability, T/C (second compound 0.000949 µM, first compound 0.3 µM) was 38.8%. It also gave a viability, T/C (second compound 0.003 µM, first compound 0.000949 µM) of 83%, a viability, T/C (second compound 0.003 µM, first compound 0.003 µM) of 73% and a viability, T/C (second compound 0.003 µM, first compound 0.00949 µM) of 61.9%. For the same compound, the viability, T/C (second compound 0.003 µM, first compound 0.03 µM) was 74%, the viability, T/C (second compound 0.003 µM, first compound 0.0949 µM) was 79.7% and the viability, T/C (second compound 0.003 µM, first compound 0.3 µM) was 48%. It also gave a viability, T/C (second compound 0.00949 µM, first compound 0.000949 µM) of 68.3%, a viability, T/C (second compound 0.00949 µM, first compound 0.003 µM) of 52.8% and a viability, T/C (second compound 0.00949 µM, first compound 0.00949 µM) of 67.2%. It also gave a viability, T/C (second compound 0.00949 µM, first compound 0.03 µM) of 68.7%, a viability, T/C (second compound 0.00949 µM, first compound 0.0949 µM) of 67.8% and a viability, T/C (second compound 0.00949 µM, first compound 0.3 µM) of 54.1%. For the same compound, the viability, T/C (second compound 0.03 µM, first compound 0.000949 µM) was 50.9%, the viability, T/C (second compound 0.03 µM, first compound 0.003 µM) was 56.4% and the viability, T/C (second compound 0.03 µM, first compound 0.00949 µM) was 72.1%. For the same compound, the viability, T/C (second compound 0.03 µM, first compound 0.03 µM) was 74.3%, the viability, T/C (second compound 0.03 µM, first compound 0.0949 µM) was 51.6% and the viability, T/C (second compound 0.03 µM, first compound 0.3 µM) was 66%. The viability, T/C (second compound 0.0949 µM, first compound 0.000949 µM) was 49.5%, the viability, T/C (second compound 0.0949 µM, first compound 0.003 µM) was 59% and the viability, T/C (second compound 0.0949 µM, first compound 0.00949 µM) was 64.4%. It also gave a viability, T/C (second compound 0.0949 µM, first compound 0.03 µM) of 66.1%, a viability, T/C (second compound 0.0949 µM, first compound 0.0949 µM) of 51.4% and a viability, T/C (second compound 0.0949 µM, first compound 0.3 µM) of 70.2%. The viability, T/C (second compound 0.3 µM, first compound 0.000949 µM) was 43.8%, the viability, T/C (second compound 0.3 µM, first compound 0.003 µM) was 59.2% and the viability, T/C (second compound 0.3 µM, first compound 0.00949 µM) was 70.8%. For the same compound, the viability, T/C (second compound 0.3 µM, first compound 0.03 µM) was 56.9%, the viability, T/C (second compound 0.3 µM, first compound 0.0949 µM) was 66.1% and the viability, T/C (second compound 0.3 µM, first compound 0.3 µM) was 70.7%.
